US5846978A, “HIV protease inhibitors useful for the treatment of AIDS” (Merck & Co., Inc., priority 1997, dated 1998)

Assays:
HIV protease [1] = target: T1, HIV protease (Human immunodeficiency virus type 1 group M subtype B, UniProt P12497); assay: Assay for Inhibition of Microbial Expressed HIV Protease (peptide substrate cleavage, HPLC); assay type: biochemical; conditions: for IC50 / % inhibition: pH 5.5, 30° C., 1 hour; for % inhibition: concentration not given
T1 construct: made in house; host or cells: Escherichia coli
Experimental: Assay for Inhibition of Microbial Expressed HIV Protease
Inhibition studies of the reaction of the protease expressed in Eschericia coli with a peptide substrate [Val-Ser-Gln-Asn-(betanapthyl)Ala-Pro-Ile-Val, 0.5 mg/mL at the time the reaction is initiated] were in 50 mM Na acetate, pH 5.5, at 30° C. for 1 hour. Various concentrations of inhibitor in 1.0 μl DMSO were added to 25 μl of the peptide solution in water. The reaction is initiated by the addition of 15 μl of 0.33 nM protease (0.11 ng) in a solution of 0.133M Na acetate pH 5.5 and 0.1% bovine serum albumin. The reaction was quenched with 160 μl of 5% phosphoric acid. Products of the reaction were separated by HPLC (VYDAC wide pore 5 cm C-18 reverse phase, acetonitrile gradient, 0.1% phosphoric acid). The extent of inhibition of the reaction was determined from the peak heights of the products. […] [drawing 61] 5(RS)-((4')-2"-furanyl)methylpheny-9(RS)-hydroxy-1(RS)-hydroxy-methyl-3-(2' -methylpropyl-3-azabicyclo[3.3.1]nonan-7-one (Compound 10, Table 1) [drawing 62]

HIV protease [2] = target: T1, HIV protease; assay: as above; assay type: biochemical; conditions: concentration printed as (8.8) μM (column head 'Enzyme concentration (μM)'); pH 5.5, 30° C., 1 hour

| Structure (SMILES) | IC50 (HIV protease [1]) | inhibition at 100 µM (HIV protease [1]; pH 5.5) | further results |
| --- | --- | --- | --- |
| CC(C)CN1CC2(CO)CC(=O)CC(Cc3ccc(Br)cc3)(C1)C2O (stereo not shown) [Compound 6] | 244 µM |  | inhibition at 250 µM (HIV protease [1]; pH 5.5): 71% |
| O=C1CC2(CO)CN(CC3CC3)CC(Cc3ccccc3)(C1)C2O (stereo not shown) [Compound 2] |  |  | inhibition at 250 µM (HIV protease [1]; pH 5.5): 56% |
| COc1ccccc1-c1ccc(CC23CC(=O)CC(CO)(CN(CC(C)C)C2)C3O)cc1 (stereo not shown) [Compound 7] |  | 56% |  |
| O=C1CC2(Cc3ccccc3)CN(CC3CCCO3)CC(C(O)Cc3ccccc3)(C1)C2O (stereo not shown) [Compound 22] | 10.4 µM | 84% |  |
| CC(C)CN1CC2(CO)CC(=O)CC(Cc3ccccc3)(C1)C2O (stereo not shown) [Compound 5] |  |  | inhibition at 250 µM (HIV protease [1]; pH 5.5): 63% |
| CC(C)CCN1CC2(CO)CC(=O)CC(Cc3ccccc3)(C1)C2O (stereo not shown) [Compound 8] |  |  | % inhibition (HIV protease [1]): 68% |
| CC(C)(C)N1CC2(Cc3ccccc3)CC(=O)CC(C(O)Cc3ccccc3)(C1)C2O (stereo not shown) [Compound 19] |  |  | inhibition at 50 µM (HIV protease [1]; pH 5.5): 44% |
| O=C1CC2(Cc3ccccc3)CN(Cc3ccccc3)CC(C(O)Cc3ccccc3)(C1)C2O (stereo not drawn) [Compound 18, 5(RS)-methylpheny-9(RS)-hydroxy-1(RS)-((1'-hydroxy)-2'-phenyl)-ethyl-3-benzyl-3-azabicyclo[3.3.1]nonan-7-one] |  |  | inhibition at 50 µM (HIV protease [1]; pH 5.5): 63% |
| O=C1CC2(Cc3ccccc3)CN(Cc3ccccc3)CC(C(O)CN3CCCCS3(=O)=O)(C1)C2O (stereo not shown) [Compound 23] | 29 µM | 69% |  |
| CC(C)C[C@@H](CO)CN1CC2(CO)CC(=O)CC(Cc3ccccc3)(C1)C2O (stereo partly shown) [Compound 13] | 44 µM |  | % inhibition (HIV protease [1]): 75% |
| CCCCC(O)C12CC(=O)CC(Cc3ccccc3)(CN(CC(C)C)C1)C2O (stereo not shown) [Compound 15] | 14 µM | 73% |  |
| O=C1CC2(CO)CN(Cc3ccccc3)CC(Cc3ccccc3)(C1)C2O (stereo not shown) [Compound 4] |  |  | inhibition at 250 µM (HIV protease [1]; pH 5.5): 82% |
| CC(C)(C)CN1CC2(CO)CC(=O)CC(Cc3ccccc3)(C1)C2O (stereo not shown) [Compound 3] |  |  | inhibition at 250 µM (HIV protease [1]; pH 5.5): 69% |
| O=C1CC2(Cc3ccccc3)CN(Cc3ccccc3)CC(C(O)C#Cc3ccccc3)(C1)C2O (stereo not shown) [Compound 17] |  |  | inhibition at 50 µM (HIV protease [1]; pH 5.5): 52% |
| CC(C)CN1CC2(Cc3ccccc3)CC(=O)CC(C(O)Cc3ccccc3)(C1)C2O (stereo not drawn) [Compound 16, 5(RS)-methylphenyl-9(RS)-hydroxy-1(RS)-((1'-hydroxy)-2'-phenyl)-ethyl-3-(2"-methyl)propyl-3-azabicyclo[3.3.1] nonan-7-one] | 50 µM |  | % inhibition (HIV protease [2]): 82% |
| O=C1CC2(Cc3ccccc3)CN(CC3CCCC3)CC(C(O)Cc3ccccc3)(C1)C2O (stereo not shown) [Compound 21] | 1.8 µM |  | inhibition at 25 µM (HIV protease [1]; pH 5.5): 80% |
| O=C1CC2(CO)CN(CC3CCCC3)CC(Cc3ccccc3)(C1)C2O (stereo not shown) [Compound 9] | 89 µM |  |  |
| CC(C)CN1CC2(Cc3ccccc3)CC(=O)CC(C(O)Cc3ccccc3N)(C1)C2O (stereo not shown) [Compound 20] | 1.6 µM | 93% |  |
| CC(C)(C)N1CC2(CO)CC(=O)CC(Cc3ccccc3Br)(C1)C2O (stereo not shown) [Compound 11] | 30 µM | 76% |  |
| CC(C)C[C@H](CO)CN1CC2(CO)CC(=O)CC(Cc3ccccc3)(C1)C2O (stereo partly shown) [Compound 14] |  |  | % inhibition (HIV protease [1]): 62% |
| CC(C)(C)N1CC2(CO)CC(=O)CC(Cc3ccc4ccccc4c3)(C1)C2O (stereo not shown) [Compound 12] |  | 43% |  |
| CC(C)CN1CC2(CO)CC(=O)CC(Cc3ccc(-c4ccco4)cc3)(C1)C2O (stereo not shown) [Compound 10] |  | 62% |  |
